Measurements from patent US4938964A, “External dermatological composition” (Showa Denko Kabushiki Kaisha, priority 1987, dated 1990).

Columns and labels:
[1] = Evaluation Example 3: remaining drug amount in tape preparation after storage; assay type: physicochemical; conditions: formulated into the (meth)acrylic copolymer used in the present invention; Table 3
Procedure: The tape preparation prepared in Example 4 and Comparative Examples 8 and 9 were cut into 7×10 cm squares and were placed in a polyethylene-aluminum laminate bag and all four sides of the bag were sealed.
The tape agent was stored at 40° C. and 75% R.H. for 3 months and the remaining drug amount in the tape preparation was measured in the same manner as in Evaluation Example 1.
From the residual amount of drug measured, the drug remaining rate was calculated by the following formula: [formula]

[2] = Evaluation Example 1: drug absorption to skin from residual drug amount, HPLC; conditions: formulated into the (meth)acrylic copolymer used in the present invention; Table 1
Procedure: The tape preparation or poultice preparation was peeled off 24 hours after application, and the drug remaining on the applied site was wiped off with defatted cotton containing 1 ml of distilled water. The tape preparation or poultice preparation peeled off was stirred in 200 ml of hot ethanol for 2 hours to extract the drug, cooled to room temperature, and then brought to a constant volume of 200 ml with ethanol. To 5 ml of the solution was added 5 ml of an internal standard substance (300 μg/ml of an aqueous flulubiprofen solution was used), and after bringing to a constant volume of 50 ml with ethanol, the residual drug amount was measured by high performance liquid chromatography (hereinafter abbreviated as HPLC). The defatted cotton was stirred in 200 ml of distilled water for 2 hours to extract the drug, and to 5 ml of the solution was added 5 ml of the internal standard substance. After the mixture was brought to a constant volume of 50 ml with distilled water, the remaining drug amount was measured by HPLC.
The ointment was wiped off with defatted cotton containing ethanol (10 ml of ethanol content) 24 hours after application. […] To 5 ml of the solution was added 5 ml of the above internal standard substance, and after bringing to 50 ml with ethanol, the remaining drug amount was measured by HPLC.

[3] = keratin soluble enzyme, N-acylsarcosine, aliphatic monoalkylolamide, or organic acid added; cited from earlier work
[4] = adhesives containing polar monomers; cited from earlier work

Structure (SMILES)	chemical stability in the preparations (in words) [1]	percutaneous absorption of the drug (in words) [2]	enhancement of the absorption by additive substance [3]	amount formulated at which crystals are not precipitated [4]
O=C(O)Cc1ccccc1Nc1c(Cl)cccc1Cl [diclofenac sodium]	poor	poor	–	–
CC(C(=O)O)c1cccc(Oc2ccccc2)c1 (stereo not shown) [fenoprofen]	–	–	2 -fold	–
COc1ccc2c(c1)c(CC(=O)O)c(C)n2C(=O)c1ccc(Cl)cc1 [indomethacin]	poor	poor	2 -fold	–
CC(C(=O)O)c1cccc(C(=O)c2ccccc2)c1 (stereo not shown) [ketoprofen, 3-Benzoylhydratropic acid]	–	–	–	about 40 % by weight
